Consider seven molecules from patent US20230285570A1, “THERAPEUTICALLY USEFUL CURE-PRO MOLECULES FOR E3 LIGASE MEDIATED DEGRADATION OF PROTEINS, AND METHODS OF MAKING AND USING THEM” (CORNELL UNIVERSITY, priority 2020, published 2023).

Common to all, as to assay type: cell-based
Assay [1] concerns the target T1, BRD4 (Homo sapiens, UniProt O60885). As to the kind of experiment: Summary of BRD4 degradation by CURE-PRO pairs, estimated from Western Blot or WES. Also on record: endogenous in cells. The settings on record: for Degradation of BRD4, combination with VHL ligand 8305: Table 3, aryl-boronic acid BRD4 ligand + 8305; for Degradation of BRD4, combination with CRBN ligand 8046: Table 1, aryl-boronic acid BRD4 ligand + 8046; for Degradation of BRD4, combination with CRBN ligand 8066: Table 1, aryl-boronic acid BRD4 ligand + 8066. The method in brief: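 Namalwa, Ramos, HeLa, MCF7, HT29 or HCT116 cells treated 24 h with compounds in DMSO; RIPA lysates analysed by Western blot (ECL) or capillary WES immunodetection. Check mark denotes 30% to 70% or higher protein degradation.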

The test system of the next assay is MV-4-11 cells. The experiment in a line: CellTiter-Glo cell viability, MV-4-11 cells. Particulars: for loss of cellular viability (toxicity) versus monomers alone: cotreated 1:1 with each of CRBN ligands 8046, 8047 and 8066, MV-4-11, 72 h, 10 nM-100 μM. On the procedure:
CellTiter-Glo® 2.0 Cell Viability Assay (Promega) was carried out following the manufacturer's recommendations. Cells were seeded at a density of 1000 cells/well in a white 96 well plates (Corning, #3917) in a total volume of 100 μl with respective monomers, combinations of BRD ligands together with E3 ligase ligands or vehicle control treatment. After a 72 h incubation, 100 ul of the CellTiter-Glo® substrate was added per well and luminescence was read on a Spectramax M5 (Molecular Devices). Dose-response curves were generated using Graphpad Prism software.
MV-4-11 cells (5×10^4) were treated for 24 hours with the sample compounds solubilized in DMSO. The compounds were added at 1 nM-100 μM each. Cellular viability was determined using the CellTiter-Glo® Luminescent Cell Viability Assay (Promega) described above. FIGS. 19-22 depict the CURE-PRO-mediated loss of cellular viability for BRD monomers (JQ1 derivatives comprising of catechol linkers), and CRBN ligand, 8049 (pomalidomide derivatives comprising boronic acid linkers) combined in a 1:1 ratio.
MV-4-11 cells (1×10^4) were treated for 72 hours with the compounds solubilized in DMSO. Compounds were added at 10 nM-100 μM each. Cellular viability was determined using the CellTiter-Glo® Luminescent Cell Viability Assay (Promega) described above. FIGS. 47-54 depict the CURE-PRO-mediated loss of cellular viability for BRD monomers (JQ1 derivatives comprising of boronic acid linkers), and CRBN ligands, 8046, 8047 and 8066 (pomalidomide derivatives comprising diol linkers) combined in a 1:1 ratio.

Assay [2] deals with T1, BRD4. The experiment in a line: CURE-PRO-mediated BRD4 degradation in MCF7 cells, WES (ProteinSimple). More on the design: endogenous in cells. On the procedure: WES Simple analysis was performed on WES system (ProteinSimple-Biotechne) according to the manufacturer's instructions. Total protein concentrations of cell lysates were determined by the Pierce BCA kit (Thermo Fisher). 3 μL of 0.3 μg/μL of the protein lysate was loaded onto a 12- to 230-kDa WES assay plate (ProteinSimple) where 300 nL sample was withdrawn through a capillary, subjected to electrophoretic separation of proteins by size, and followed by the simultaneous, HRP-based detection of proteins using the Anti-Rabbit Detection Module (Proteinsimple: #DM-001). The electropherograms were checked then the automatic peak detection was manually corrected if it was required.
MCF7 cells (3×10^6) were treated for 4-24 hours continually (FIG. 72), or treated for 4 h, washed and incubated for a further 4-24 h with the compounds solubilized in DMSO. Compounds were added at 10 μM each. Cells were washed, lysed, and clarified by centrifugation. The total protein concentration was quantified by the BCA method (ThermoFisher Sciences). Standardized protein samples were electrophoresed and imaged as described in the WES Proteinsimple section above. FIG. 69 depicts the CURE-PRO-mediated BRD4 degradation for the BRD-E50 monomer, and VHL ligand, 8305.
MCF7 cells (3×10^6) were treated for 24 hours with the compounds solubilized in DMSO. CURE-PRO monomers were added at 10 μM each and the proteasomal inhibitors at 1 μM. Standardized protein samples were electrophoresed and imaged as described in the WES Proteinsimple section above. FIGS. 73 and 75 depicts the dependence of the proteasome for CURE-PRO-mediated BRD4 degradation.
MCF7 cells (3×10^6) were treated for 24 hours with the compounds solubilized in DMSO. CURE-PRO monomers were added at 10 μM. FIG. 74 depicts the CURE-PRO-mediated BRD4 degradation for the BRD-E50 monomer, and VHL ligand, 8305 combined in a 1:1 ratio after 24 h.

Assay [3] concerns the target T1, BRD4. As to the kind of experiment: CURE-PRO-mediated BRD4 degradation in HeLa cells, Western blot. Also on record: endogenous in cells; host or cells: HeLa. The settings on record: 24 h. The method, boiled down: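 HeLa cells (2.5×10^6) treated 24 h with DMSO-solubilized compounds, degrader pairs combined 1:1, at 1 nM-1 μM, 1-10 μM, 10 μM or 10 and 100 μM each depending on series. RIPA lysates (10-20 μg protein) run on SDS-PAGE and immunoblotted for BRD4 with ECL detection.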

The mark [4] stands for this setting: co-treated 1:1 with CRBN ligand 8046, HeLa, 10 μM each.
Setting [5] is: co-treated 1:1 with CRBN ligand 8066, HeLa, 10 μM each.
[6] abbreviates: co-treated 1:1 with CRBN ligand 8047, HeLa, 10 μM each.

“Also recorded” adds a separate entry of the source.

As to `CCNC(=O)C[C@@H]1N=C(c2ccc(Cl)cc2)c2cc(Sc3ccc(B(O)O)cc3)ccc2-n2c(C)nnc21` [BRD-E75, (4-(((4S)-6-(4-chlorophenyl)-4-(2-(ethylamino)-2-oxoethyl)-1-methyl-4H-benzo[f][1,2,4]triazolo[4,3-a][1,4]diazepin-8-yl)thio)phenyl)boronic acid], the “Degradation of BRD4, combination with MDM2 ligand 8314” value at BRD4 [1] (Table 2, aryl-boronic acid BRD4 ligand + 8314) is “√ (A black check mark indicates efficacy of 30% to 70% or higher protein degradation)”. In addition, the “loss of cellular viability (toxicity) versus monomers alone” value (“loss … (toxicity) versus monomers alone” for short) in the assay on MV-4-11 cells is reported as “reduced viability; also recorded: increased toxicity”.
Turning to `COc1ccc2c(c1)C(c1ccc(Cl)cc1)=N[C@@H](CC(=O)NCCNC(=O)c1cccc(B(O)O)c1)c1nnc(C)n1-2` [BRD-E2], the “Degradation of BRD4, combination with VHL ligand 8305” value at BRD4 [1] is “√ (A black check mark indicates efficacy of 30% to 70% or higher protein degradation)”. In addition, the “BRD4 degradation with proteasome inhibitors” value at BRD4 [2] (1:1 with 8305 at 10 μM, pre-incubation with MG-132 and Carfilzomib 1 μM, MCF7) is “inhibited by the pre-incubation with MG-132 and Carfilzomib; also recorded: inhibited with the proteasome inhibitors, MG-132 and Carfilzomib”. Further, on BRD4 [2] (1:1 with VHL ligand 8305, MCF7, 10 μM each, 4-24 h), the BRD4 degradation result is “caused BRD4 degradation; also recorded: marked BRD4 degradation”.
With `CCNC(=O)C[C@@H]1N=C(c2ccc(Cl)cc2)c2cc(OCCCCCCCNC(=O)c3ccc(B(O)O)cc3)ccc2-n2c(C)nnc21` [BRD-E78], the “Degradation of BRD4, combination with VHL ligand 8305” value at BRD4 [1] was “√ (A black check mark indicates efficacy of 30% to 70% or higher protein degradation)”. In addition, the “loss … (toxicity) versus monomers alone” value with MV-4-11 cells was “reduced viability; also recorded: increased toxicity”.
As for `COc1ccc2c(c1)C(c1ccc(Cl)cc1)=N[C@@H](CC(=O)NCCOCCOCCNC(=O)c1cccc(B(O)O)c1)c1nnc(C)n1-2` [BRD-E46], at BRD4 [1], the “Degradation of BRD4, combination with CRBN ligand 8046” value (from here on “Degradation … with CRBN ligand 8046”) is “√ (A black check mark indicates efficacy of 30% to 70% or higher protein degradation)” and the “Degradation of BRD4, combination with CRBN ligand 8066” value was “√ (A black check mark indicates efficacy of 30% to 70% or higher protein degradation)”. For the same molecule, the BRD4 degradation result on BRD4 [3] (setting [4]) is “causes degradation of BRD4; also recorded: Degradation is noted”. For the same molecule, on BRD4 [3] (setting [5]), the BRD4 degradation entry is listed as “causes degradation of BRD4; also recorded: Degradation is noted”. In addition, the “loss … (toxicity) versus monomers alone” value with MV-4-11 cells is “reduced viability; also recorded: increased toxicity”.
Take `COc1ccc2c(c1)C(c1ccc(Cl)cc1)=N[C@@H](CC(=O)NCCNC(=O)/C=C/c1ccc(B(O)O)cc1)c1nnc(C)n1-2` [BRD-E29, (4-((E)-3-((2-(2-((4S)-6-(4-chlorophenyl)-8-methoxy-1-methyl-4H-benzo[f][1,2,4]triazolo[4,3-a][1,4]diazepin-4-yl)acetamido)ethyl)amino)-3-oxoprop-1-en-1-yl)phenyl)boronic acid]: on BRD4 [1], the “Degradation … with CRBN ligand 8046” value is reported as “√ (A black check mark indicates efficacy of 30% to 70% or higher protein degradation)”. The “Degradation of BRD4, combination with CRBN ligand 8047” value at BRD4 [1] (Table 1, aryl-boronic acid BRD4 ligand + 8047) is “√ (A black check mark indicates efficacy of 30% to 70% or higher protein degradation)”. For the same molecule, on BRD4 [1], the “Degradation of BRD4, combination with CRBN ligand 8066” value is listed as “√ (A black check mark indicates efficacy of 30% to 70% or higher protein degradation)”. Further, the BRD4 degradation result at BRD4 [3] (setting [4]), on BRD4 [3] (setting [6]) and at BRD4 [3] (setting [5]) was “causes degradation of BRD4; also recorded: Degradation is noted” each time. Further, the “loss … (toxicity) versus monomers alone” value in the assay on MV-4-11 cells is given as “reduced viability; also recorded: increased toxicity”.
Take `COc1ccc2c(c1)C(c1ccc(Cl)cc1)=N[C@@H](CC(=O)NCCc1ccc(O)c(O)c1)c1nnc(C)n1-2` [BRD-N10, (S)-2-(6-(4-chlorophenyl)-8-methoxy-1-methyl-4H-benzo[f][1,2,4]triazolo[4,3-a][1,4]diazepin-4-yl)-N-(3,4-dihydroxyphenethyl)acetamide]: at BRD4 [1] (Table 4, aromatic 1,2-diol BRD4 ligand + 8048), the “Degradation of BRD4, combination with CRBN ligand 8048” value is on record as “√ (A black check mark indicates efficacy of 30% to 70% or higher protein degradation)”. The “Degradation of BRD4, combination with CRBN ligand 8049” value on BRD4 [1] (Table 4, aromatic 1,2-diol BRD4 ligand + 8049) was “√ (A black check mark indicates efficacy of 30% to 70% or higher protein degradation)”. Further, the “Degradation of BRD4, combination with MDM2 ligand 8310” value at BRD4 [1] (Table 5, aromatic 1,2-diol BRD4 ligand + 8310) is on record as “√ (A black check mark indicates efficacy of 30% to 70% or higher protein degradation)”. Further, the BRD4 degradation result on BRD4 [3] (BRD4 monomer alone, HeLa, 1-10 μM) was “there is no degradation of BRD4”; on BRD4 [3] (co-treated 1:1 with CRBN ligand 8048, HeLa, 1-10 μM each) it was “causes degradation of BRD4; also recorded: capable of degrading BRD4”. The “loss of cellular viability (toxicity)” value with MV-4-11 cells (co-dosed 1:1 with CRBN ligand 8049, MV-4-11, 24 h, 1 nM-100 μM each) was “concentration-dependent loss in cellular viability; also recorded: increased toxicity”.
Consider `CCNC(=O)C[C@@H]1N=C(c2ccc(Cl)cc2)c2cc(Sc3cccc(B(O)O)c3)ccc2-n2c(C)nnc21` [BRD-E76], for which the “Degradation … with CRBN ligand 8046” value on BRD4 [1] is “√ (A black check mark indicates efficacy of 30% to 70% or higher protein degradation)”. In addition, the BRD4 degradation entry on BRD4 [3] (setting [4]) and at BRD4 [3] (setting [6]) was “causes degradation of BRD4” throughout. The “loss … (toxicity) versus monomers alone” value in the assay with MV-4-11 cells was “reduced viability; also recorded: increased toxicity”.
